Test results taken from patent US20240156856A1, “NOVEL APPLICATIONS OF HYALURONIC ACID FOR TREATMENT OF PAIN AND PRURITIS” (THE REGENTS OF THE UNIVERSITY OF CALIFORNIA, priority 2022, published 2024).

Tests used:
rats = conditions: previously shown; cited from earlier work
[1] = test system: rats with paclitaxel CIPN; assay: Paclitaxel CIPN mechanical hyperalgesia, Randall-Selitto paw-withdrawal test; type: in vivo, Sprague-Dawley rats; conditions: male rats; paclitaxel 1 mg/kg i.p., 4 doses, day 7
Protocol: (§1) Experimental animals. Experiments were performed on 220-400 g male and female Sprague-Dawley rats, purchased from Charles River Laboratories (Hollister, CA, USA), housed three per cage, under a 12-hour light/dark cycle, in a temperature- and humidity-controlled animal care facility at the University of California, San Francisco. Food and water were available ad libitum. Experimental protocols were approved by the University of California, San Francisco, Institutional Animal Care and Use Committee, and adhered to the National Institutes of Health Guidelines for the care and use of laboratory animals.
(§2) Measurement of nociceptive threshold. Mechanical nociceptive threshold was quantified with an Ugo Basile Analgesymeter (Stoelting, Wood Dale, IL, USA), used to perform the Randall-Selitto paw-withdrawal test [61; 68; 69]. This device uses a dome-shaped plinth to apply a mechanical force that increases linearly with time, to the dorsum of a rat's hindpaw. To perform the Randall-Selitto paw-withdrawal test, rats were placed in cylindrical acrylic restrainers with lateral ports that allow access to the hind paw, as described previously. Rats were acclimatized to the testing procedure by placing them in restrainers for 1 h per day for 3 consecutive daily training sessions, and for 30-40 min prior to experiments.
(§3) Mechanical nociceptive threshold is defined as the force, in grams, applied by the plinth to the dorsum of the hindpaw, at which a rat withdraws its paw from the stimulus. Baseline paw-withdrawal threshold is defined as the mean of three readings taken before administration of test agents. To minimize experimenter bias, individuals conducting experiments were blinded to experimental treatments. Each experiment was performed on a different group of rats. Data are presented as mechanical nociceptive threshold, in grams (g) or percentage change from preintervention baseline.
(§4) Hyaluronans were initially dissolved in distilled water (dH2O) at a concentration of 10 μg/μL, stock solution, and further diluted by adding DMSO with three final concentrations of hyaluronan (1, 2 and 4 μg/μL), protamine or terpene; unless otherwise stated, the final concentration of DMSO was 75%. The DMSO vehicle was 75% DMSO in 0.9% saline. In one experiment, 500-1200 kDa hyaluronan was administered topically in 0.9% saline vehicle. PGE2 was dissolved in 0.9% saline at the same final concentration that we previously injected intradermally (100 ng/5 μL). In the experiments in which hyaluronan was dissolved in protamine or terpene vehicle, protamine was first dissolved in distilled water (dH2O) to a concentration of 5 μg/μ1, stock solution of hyaluronan was combined with protamine at the final concentration of 2 μg/μ1, in a volume of 3 μl, for topical administration; terpene was first dissolved in dH2O at the concentration of 2 μg/μ1, then hyaluronan was dissolved in stock solution of terpene to its final concentration of 2 μg/μ1, in a volume of 3 μl, for topical administration).
Paclitaxel CIPN: Paclitaxel was dissolved in Cremophor EL and ethanol (1:1) [1; 6; 20; 22] and diluted in 0.9% saline to a concentration of 1 mg/mL, just prior to its intraperitoneal (i.p.) administration (1 mg/kg, i.p.) [19; 42] to rats briefly anesthetized with isoflurane (2.5% in O2), every other day for a total of 4 doses.
Hyaluronans (30 μL) were administered topically on the dorsum of the hind paw, dispensed from a P200 pipette (Gilson, Middleton, WI, USA) with a plastic pipette tip and then spread manually.
Antisense oligodeoxynucleotides (ODNs).
(§5) Before use, ODNs were reconstituted in nuclease-free 0.9% saline and then administered by the intrathecal (i.t.) route. As described previously, rats were anesthetized with isoflurane (2.5% in O2) and 120 μg of ODN, in a volume of 20 μL, injected i.t., using a syringe ([…]) attached to a 29-gauge hypodermic needle that was inserted into the subarachnoid space, between the L4 and L5 vertebrae. […]

[2] = test system: 5-HT-induced scratching behavior in rats; assay: 5-HT-induced scratching (itch) behavior; type: in vivo; conditions: topical 100 μg in 50 μl 75% DMSO in water, 30 and 5 mins before 5-HT 200 μg i.d.
Protocol: Topical hyaluronan attenuates itch behavior in rats. Intradermal administration of serotonin (5-HT) elicited acute scratching behavior, using the method of Nojima and Carstens {Nojima and Carstens, 2003, #99335; PMID: 12814838}. Rats were acclimated to a testing chamber for 30 min, and then briefly anesthetized with 2% isoflurane, during which the fur over the nape of the neck was shaved, and 5-HT (200 μg in 10 μl 0.9% saline vehicle) injected with a 30 gauge needle. In the topical hyaluronan group, hyaluronan (100 μg in 50 μl 75% DMSO in water vehicle) was applied to the skin 30 mins and again 5 mins before administration of 5-HT. Rats were placed back into testing chambers and their behavior video recorded for 40 min. Number of hind paw scratches directed at the injection site were counted by watching video playback at half normal speed, and total number of scratches in 2-min intervals recorded. Rats were treated with 5-HT alone and topical hyaluronan with 5-HT, with 4 days between experimental sessions, allowing for use of paired t-tests to compare data. Data are presented as cumulative number of scratches (FIG. 9A), and as total scratches over the 40-min observation period (FIG. 9B). […] See also, FIG. 10, which includes additional data showing that topical hyaluronan attenuates 5-HT-induced scratching behavior. […] Data are presented as cumulative number of scratches.

[3] = test system: PGE2 hyperalgesia in male and female rats; assay: PGE2-induced mechanical hyperalgesia, Randall-Selitto paw-withdrawal test; type: in vivo, Sprague-Dawley rats; conditions: 100 ng intradermally, dorsum of hind paw, male and female rats
Protocol: as §1, §2, §3
Hyaluronans were initially dissolved in distilled water (dH2O) at a concentration of 10 μg/μL, stock solution, and further diluted by adding DMSO with three final concentrations of hyaluronan (1, 2 and 4 μg/μL), protamine or terpene; unless otherwise stated, the final concentration of DMSO was 75%. The DMSO vehicle was 75% DMSO in 0.9% saline. In one experiment, 500-1200 kDa hyaluronan was administered topically in 0.9% saline vehicle. PGE2 was dissolved in 0.9% saline at the same final concentration that we previously injected intradermally (100 ng/5 μL). […]

[4] = test system: rats with oxaliplatin CIPN; assay: Oxaliplatin CIPN mechanical hyperalgesia, Randall-Selitto paw-withdrawal test; type: in vivo, Sprague-Dawley rats; conditions: for CIPN hyperalgesia, effect of hyaluronan molecular weight range: male rats with oxaliplatin CIPN, topical, combined with DMSO
Protocol: as §1, §2, §3, §4
Oxaliplatin CIPN: Oxaliplatin was freshly dissolved in 0.9% saline at a concentration of 2 mg/mL just prior to its tail vein intravenous (i.v.) administration (1 mL/kg), to rats briefly anesthetized with isoflurane (2.5% in O2).
Hyaluronans (30 μL) were administered topically on the dorsum of the hind paw, dispensed from a P200 pipette (Gilson, Middleton, WI, USA) with a plastic pipette tip and then spread manually. […]
as §5, with “vertebrae. The i.t. site of the injectate was confirmed by a sudden flick of the rat's tail, a reflex evoked by subarachnoid space access and bolus i.t. injection.” for “vertebrae.”

[5] = test system: rats with bortezomib CIPN; assay: Bortezomib CIPN mechanical hyperalgesia, Randall-Selitto paw-withdrawal test; type: in vivo, Sprague-Dawley rats; conditions: male rats; bortezomib 0.2 mg/kg i.v., 4 doses, day 7
Protocol: as §1, §2
as §3, with “baseline. […]” for “baseline.”

hyaluronan [low molecular weight hyaluronan, reference compound]
nociceptive effect of intradermal injection (rats): induced hyperalgesia

CC(=O)O[C@H]1C(=O)[C@@]2(C)[C@H]([C@H](OC(=O)c3ccccc3)[C@]3(O)C[C@H](OC(=O)[C@H](O)[C@@H](NC(=O)c4ccccc4)c4ccccc4)C(C)=C1C3(C)C)[C@]1(OC(C)=O)CO[C@@H]1C[C@@H]2O [Paclitaxel, paclitaxel, reference compound]
mechanical nociceptive threshold after chemotherapy [1]: decreased mechanical nociceptive threshold

hyaluronan
number of 5-HT scratches over 40 min [2]: significantly attenuated the number of 5-HT scratches

CCCCC[C@H](O)/C=C/[C@H]1[C@H](O)CC(=O)[C@@H]1C/C=C\CCCC(=O)O [PGE2, prostaglandin E2, reference compound]
mechanical hyperalgesia after intradermal PGE2 [3]: produced robust mechanical hyperalgesia

hyaluronan [1500-1750 kDa hyaluronan]
CIPN hyperalgesia, effect of hyaluronan molecular weight range [4]: produced robust anti-hyperalgesia, of similar magnitude and duration

O=C1[O][Pt]2([NH][C@@H]3CCCC[C@H]3[NH]2)[O]C1=O [Oxaliplatin, oxaliplatin, reference compound]
mechanical nociceptive threshold after chemotherapy ([4]; male rats, oxaliplatin 2 mg/kg i.v., day 7): decreased mechanical nociceptive threshold

CC(C)C[C@H](NC(=O)[C@H](Cc1ccccc1)NC(=O)c1cnccn1)B(O)O [Bortezomib, bortezomib, reference compound]
mechanical nociceptive threshold after chemotherapy [5]: decreased mechanical nociceptive threshold

hyaluronan [70-120 kDa hyaluronan]
CIPN hyperalgesia, effect of hyaluronan molecular weight range [4]: did not attenuate CIPN hyperalgesia

hyaluronan [300-500 kDa hyaluronan]
CIPN hyperalgesia, effect of hyaluronan molecular weight range [4]: produced robust anti-hyperalgesia, of similar magnitude and duration

hyaluronan [150-300 kDa hyaluronan]
CIPN hyperalgesia, effect of hyaluronan molecular weight range [4]: produced robust anti-hyperalgesia, of similar magnitude and duration
